The values below come from patent US10683290B2, “Tricyclic compounds as anticancer agents” (BRISTOL-MYERS SQUIBB COMPANY, priority 2015, dated 2020).

Each structure is given as a SMILES string. Bounds are passed on as bounds.

The target in the experiment is BRD4 (Homo sapiens, UniProt O60885). Nature of the experiment: biochemical. Format: binding. Conditions: one of the FRET assays described; read-out: FRET BRD4 IC50.
For `Cc1ccc2c(n1)c1c(C(N)=O)cc(-c3c(C)noc3C)cc1n2Cc1ccccc1` [Example 1, 5-Benzyl-7-(dimethyl-1,2-oxazol-4-yl)-2-methyl-5H-pyrido[3,2-b]indole-9-carboxamide], the 50% inhibitory concentration (IC50) (usually the concentration that gives 50% inhibition) is below 1500 nM.

Turning to `[2H]C([2H])([2H])c1nnn(C)c1-c1cc2c(cc1F)c1ncc(C(C)(C)O)cc1n2C(c1ncccc1OC)C1CCOCC1` (single isomer, unassigned) [Example 41, 2-{8-fluoro-5-[(3-methoxypyridin-2-yl)(oxan-4-yl)methyl}-7-[4-(^2H3)methyl-1-methyl-1H-1,2,3-triazol-5-yl]-5H-pyrido[3,2-b]indol-3-yl]propan-2-ol], the IC50 was below 5 nM.

Regarding `Cc1nnn(C)c1-c1cc(Cl)c2c3ncc(C(C)(C)O)cc3n(C(CCC(F)(F)F)CCC(F)(F)F)c2c1` [Example 12, 2-[9-Chloro-7-(dimethyl-1H-1,2,3-triazol-5-yl)-5-(1,1,1,7,7,7-hexafluoroheptan-4-yl)-5H-pyrido[3,2-b]indol-3-yl]propan-2-ol], the IC50 was below 5 nM. Turning to `[2H]C([2H])([2H])c1nnn(C)c1-c1cc2c(cc1F)c1ncc(C(C)(C)O)cc1n2C(c1ccc(C)cn1)C1CCOCC1` (single isomer, unassigned) [Example 57, 2-{8-fluoro-7-[4-(^2H3)methyl-1-methyl-1H-1,2,3-triazol-5-yl]-5-[(5-methylpyridin-2-yl)(oxan-4-yl)methyl]-5H-pyrido[3,2-b]indol-3-yl}propan-2-ol], the IC50 is below 1500 nM. On to `[2H]C([2H])([2H])c1nnn(C)c1-c1ccc2c3ncc(S(C)(=O)=O)cc3n([C@H](c3ccccc3)C3CCOCC3)c2c1` [Example 27, 5-{3-Methanesulfonyl-5-[(S)-oxan-4-yl(phenyl)methyl]-5H-pyrido[3,2-b]indol-7-yl}-4-(^2H3)methyl-1-methyl-1H-1,2,3-triazole], for which the IC50 was below 5 nM. For the compound `Cc1nnn(C)c1-c1ccc2c3ncc(C(C)(C)O)cc3n([C@H](c3ccccc3)C3CCOCC3)c2c1` [Example 8, 2-[7-(dimethyl-1H-1,2,3-triazol-5-yl)-5-[(S)-oxan-4-yl(phenyl)methyl]-5H-pyrido[3,2-b]indol-3-yl]propan-2-ol], the IC50 is below 1 nM. With `[2H]C([2H])([2H])c1nnn(C)c1-c1cc2c(cc1F)c1ncc(C(C)(C)O)cc1n2C(c1ncccn1)C1CCOCC1` (single isomer, unassigned) [Example 46], the IC50 is below 5 nM.

For `[2H]C([2H])([2H])c1nnn(C)c1-c1cc2c(cc1F)c1ncc(C(C)(C)O)cc1n2C(c1ccc(F)cn1)C1CCOCC1` (single isomer, unassigned) [Example 45, 2-{8-fluoro-5-[(5-fluoropyridin-2-yl)(oxan-4-yl)methyl}-7-[4-(^2H3)methyl-1-methyl-1H-1,2,3-triazol-5-yl]-5H-pyrido[3,2-b]indol-3-yl]propan-2-ol], the IC50 is below 5 nM. In the case of `Cc1nnn(C)c1-c1cc2c(cc1F)c1ncc(S(C)(=O)=O)cc1n2[C@H](c1ccccc1F)C1CCOCC1` [Example 25, 5-{8-Fluoro-5-[(S)-(2-fluorophenyl)(oxan-4-yl)methyl]-3-methanesulfonyl-5H-pyrido[3,2-b]indol-7-yl}-1,4-dimethyl-1H-1,2,3-triazole], the IC50 is below 1 nM. As for `[2H]C([2H])([2H])c1nnn(C)c1-c1ccc2c3ncc(C(C)(C)O)cc3n(C(c3ncccc3F)C3CCOCC3)c2c1F` (single isomer, unassigned) [Example 84, 2-{6-Fluoro-5-[(3-fluoropyridin-2-yl)(oxan-4-yl)methyl]-7-[4-(^2H3)methyl-1-methyl-1H-1,2,3-triazol-5-yl]-5H-pyrido[3,2-b]indol-3-yl}propan-2-ol], the IC50 was below 5 nM. On to `Cc1nnn(C)c1-c1ccc2c3ncc(C(C)(C)O)cc3n(C(CCC(F)(F)F)CCC(F)(F)F)c2c1` [Example 4, 2-[7-(dimethyl-1H-1,2,3-triazol-5-yl)-5-(1,1,1,7,7,7-hexafluoroheptan-4-yl)-5H-pyrido[3,2-b]indol-3-yl]propan-2-ol], for which the half-maximal inhibitory concentration (IC50) was below 5 nM. With `Cc1nnn(C)c1-c1cc2c(cc1F)c1ncc(C(C)(C)O)cc1n2C(c1ncccn1)C1CCOCC1` (single isomer, unassigned) [Example 54], the IC50 is below 5 nM. `Cc1noc(C)c1-c1ccc2c3ncc(C(C)(C)O)cc3n([C@H](c3ccccc3F)C3CCOCC3)c2c1` [Example 15, 2-[7-(Dimethyl-1,2-oxazol-4-yl)-5-[(S)-(2-fluorophenyl)(oxan-4-yl)methyl]-5H-pyrido[3,2-b]indol-3-yl]propan-2-ol]: the IC50 is below 5 nM. As for `[2H]C([2H])([2H])c1nnn(C)c1-c1cc2c(cc1F)c1ncc(C(C)(C)O)cc1n2C(c1ccccn1)C1CCOCC1` (single isomer, unassigned) [Example 36, 2-{8-fluoro-7-[4-(^2H3)methyl-1-methyl-1H-1,2,3-triazol-5-yl}-5-[oxan-4-yl(pyridin-2-yl)methyl]-5H-pyrido[3,2-b]indol-3-yl]propan-2-ol], the IC50 was below 1 nM. The figure for `Cc1nnn(C)c1-c1ccc2c3ncc(C(C)(C)O)cc3n([C@H](c3ccc(F)cc3)C3CCOCC3)c2c1` [Example 3, 2-[7-(Dimethyl-1H-1,2,3-triazol-5-yl)-5-[(S)-(4-fluorophenyl)(oxan-4-yl)methyl]-5H-pyrido[3,2-b]indol-3-yl]propan-2-ol] is below 1 nM. For `Cc1nnn(C)c1-c1cc2c(cc1F)c1ncc(C(C)(C)O)cc1n2C(c1ccc(F)cn1)C1CCOCC1` (single isomer, unassigned) [Example 69, 2-[7-(dimethyl-1H-1,2,3-triazol-5-yl)-8-fluoro-5-[(5-fluoropyridin-2-yl)(oxan-4-yl)methyl]-5H-pyrido[3,2-b]indol-3-yl]propan-2-ol], the IC50 is below 1500 nM. For `[2H]C([2H])([2H])c1nnn(C)c1-c1cc2c(cc1F)c1ncc(C(C)(C)O)cc1n2C(c1ccccc1)C1COC1` (single isomer, unassigned) [Example 68, 2-{8-fluoro-7-[4-(^2H3)methyl-1-methyl-1H-1,2,3-triazol-5-yl]-5-[oxetan-3-yl(phenyl)methyl]-5H-pyrido[3,2-b]indol-3-yl}propan-2-ol], the half-maximal inhibitory concentration (IC50) is below 1500 nM.

Take `Cc1nnn(C)c1-c1cc2c(cc1F)c1ncc(C(C)(C)O)cc1n2[C@H](c1ccccc1)C1CCOCC1` [Example 19, 2-[7-(Dimethyl-1H-1,2,3-triazol-5-yl)-8-fluoro-5-[(S)-oxan-4-yl(phenyl)methyl]-5H-pyrido[3,2-b]indol-3-yl]propan-2-ol]: the IC50 is below 1500 nM. Regarding `[2H]C([2H])([2H])c1nnn(C)c1-c1cc2c(cc1Cl)c1ncc(C(C)(C)O)cc1n2C(c1cc(C)on1)C1CCOCC1` (single isomer, unassigned) [Example 79, 2-{8-chloro-5-[(5-methyl-1,2-oxazol-3-yl)(oxan-4-yl)methyl]-7-[4-(^2H3)methyl-1-methyl-1H-1,2,3-triazol-5-yl]-5H-pyrido[3,2-b]indol-3-yl}propan-2-ol], the IC50 is below 1500 nM.

As to `Cc1nnn(C)c1-c1cc2c(cc1F)c1ncc(C(C)(C)O)cc1n2[C@H](c1ccccc1F)C1CCOCC1` [Example 21, 2-[7-(Dimethyl-1H-1,2,3-triazol-5-yl)-8-fluoro-5-[(S)-(2-fluorophenyl)(oxan-4-yl)methyl]-5H-pyrido[3,2-b]indol-3-yl]propan-2-ol], the IC50 was below 1 nM. `[2H]C([2H])([2H])c1nnn(C)c1-c1cc2c(cc1F)c1ncc(C(C)(C)O)cc1n2C(c1cc(C)ccn1)C1CCOCC1` (single isomer, unassigned) [Example 52, 2-{8-fluoro-7-[4-(^2H3)methyl-1-methyl-1H-1,2,3-triazol-5-yl]-5-[(4-methylpyridin-2-yl)(oxan-4-yl)methyl]-5H-pyrido[3,2-b]indol-3-yl}propan-2-ol]: the IC50 is below 5 nM.

Turning to `[2H]C([2H])([2H])c1nnn(C)c1-c1cc2c(cc1F)c1ncc(C(C)(C)O)cc1n2C(c1cc(C)on1)C1CCOCC1` (stereo not drawn) [Example 35, 2-{8-Fluoro-5-[(5-methyl-1,2-oxazol-3-yl)(oxan-4-yl)methyl]-7-[4-(^2H3)methyl-1-methyl-1H-1,2,3-triazol-5-yl]-5H-pyrido[3,2-b]indol-3-yl}propan-2-ol], the half-maximal inhibitory concentration (IC50) is below 1500 nM. For `[2H]C([2H])([2H])c1nnn(C)c1-c1cc2c(cc1F)c1ncc(C(C)(C)O)cc1n2C(c1ncccc1C)C1CCOCC1` (single isomer, unassigned) [Example 43, 2-{8-fluoro-7-[4-(^2H3)methyl-1-methyl-1H-1,2,3-triazol-5-yl]-5-[(3-methylpyridin-2-yl)(oxan-4-yl)methyl}-5H-pyrido[3,2-b]indol-3-yl]propan-2-ol], the IC50 is below 5 nM. The figure for `Cc1nnn(C)c1-c1ccc2c3ncc(C(C)(C)O)cc3n([C@H](c3ccccc3)C3CCOCC3)c2c1F` [Example 20, 2-[7-(Dimethyl-1H-1,2,3-triazol-5-yl)-6-fluoro-5-[(S)-oxan-4-yl(phenyl)methyl]-5H-pyrido[3,2-b]indol-3-yl]propan-2-ol] is below 5 nM; for `[2H]C([2H])([2H])c1nnn(C)c1-c1ccc2c3ncc(C(C)(C)O)cc3n(C(c3ncccc3F)C3CCOCC3)c2c1` (single isomer, unassigned) [Example 71, 2-{5-[(3-Fluoropyridin-2-yl)(oxan-4-yl)methyl]-7-[4-(^2H3)methyl-1-methyl-1H-1,2,3-triazol-5-yl]-5H-pyrido[3,2-b]indol-3-yl}propan-2-ol] it is below 1 nM. Turning to `[2H]C([2H])([2H])c1nnn(C)c1-c1cc2c(cc1F)c1ncc(C(C)(C)O)cc1n2C(CCOC)c1ccccc1` (single isomer, unassigned) [Example 62, 2-[8-fluoro-5-(3-methoxy-1-phenylpropyl)-7-[4-(^2H3)methyl-1-methyl-1H-1,2,3-triazol-5-yl]-5H-pyrido[3,2-b]indol-3-yl]propan-2-ol], the IC50 is below 1500 nM. Regarding `[2H]C([2H])([2H])c1nnn(C)c1-c1cc2c(cc1F)c1ncc(C(C)(C)O)cc1n2C(c1ccccn1)C1CCOCC1` (single isomer, unassigned) [Example 37, 2-{8-fluoro-7-[4-(^2H3)methyl-1-methyl-1H-1,2,3-triazol-5-yl}-5-[oxan-4-yl(pyridin-2-yl)methyl]-5H-pyrido[3,2-b]indol-3-yl]propan-2-ol], the IC50 was below 5 nM.
